# Laboratory results from publication PMC9270327 (Communications Biology, 2022).
# Counter-ions that a name gives are not always drawn. Like-named read-outs stand apart in the source and are kept apart here.
# Tests used:
# TMPRSS2 [1] = target: T1, TMPRSS2 (Homo sapiens, UniProt O15393)
# Method: Negative ctrl: no inhibitor, positive ctrl: inhibitor in assay buffer. d Inhibitory constants Ki as determined from (a–c). Shown are the means ± SD of n = 1 experiment performed in triplicates. No inh. no inhibition.
# (§1) The activity of the compounds against the recombinant human enzymes was determined in enzyme inhibition assays. […] The measurements were performed on a Tecan infinite® M1000 and the fluorescence intensity was measured by exciting the AMC fluorophore at 380 nm wavelength and recording emission at 460 nm wavelength. […] Fluorescence intensities and absorption were measured every 2 min for 2 h or as endpoint after 2 h. […] To determine the IC50 values, the concentration-response data were plotted with the program GraphPad prism version 8.4.2 (San Diego, California) and a nonlinear regression fit with the equation [Inhibitor] vs. normalized response was applied. The inhibitory constant Ki was calculated from the IC50 values using the Cheng–Prusoff equation (Ki = IC50/[S]/KM) for competitive reversible inhibitors[66].
# (§2) The stability of the inhibitors was measured according to a modified procedure from ref. [67]. […] At indicated timepoints, 100 µL samples were taken and mixed with 200 µL of ethanol to precipitate proteins. […] The supernatant was aspirated and analyzed using analytical HPLC. The residual inhibitory constants Ki after incubation was assessed by mixing serial dilutions of the inhibitor with recombinant TMPRSS2 as described above.
# TMPRSS2 [2] = target: T1, TMPRSS2; experiment: Cell culture medium stability: residual TMPRSS2 inhibition after incubation in medium
# Method: as §1, §2
# were mixed with recombinant TMPRSS2, followed by the addition of the fluorogenic reference
# Shown are the means ± SD of n=1 experiment performed in triplicates.
# [3] = inhibitor 16.65 nM, positive ctrl
# [4] = inhibitor 166.5 nM, positive ctrl
# [5] = inhibitor 1665 nM, positive ctrl
# T1 sequence (O15393 whole entry): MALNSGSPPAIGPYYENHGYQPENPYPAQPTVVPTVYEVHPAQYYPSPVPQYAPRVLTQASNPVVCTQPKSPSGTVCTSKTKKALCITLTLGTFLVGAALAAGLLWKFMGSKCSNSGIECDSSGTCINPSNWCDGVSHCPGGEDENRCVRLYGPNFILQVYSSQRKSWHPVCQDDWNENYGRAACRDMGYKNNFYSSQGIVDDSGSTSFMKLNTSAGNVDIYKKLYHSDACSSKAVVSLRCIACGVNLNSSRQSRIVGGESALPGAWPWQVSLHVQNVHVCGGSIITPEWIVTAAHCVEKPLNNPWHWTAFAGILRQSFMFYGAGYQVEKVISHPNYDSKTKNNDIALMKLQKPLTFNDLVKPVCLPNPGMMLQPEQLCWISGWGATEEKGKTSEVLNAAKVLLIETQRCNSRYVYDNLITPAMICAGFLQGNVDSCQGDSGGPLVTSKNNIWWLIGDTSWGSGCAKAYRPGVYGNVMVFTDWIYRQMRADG
structure (smiles),measurement,setting,value
"CN(C)C(=O)COC(=O)Cc1ccc(OC(=O)c2ccc(NC(=N)N)cc2)cc1 [CM, camostat mesylate, reference compound]","TMPRSS2 activity, Mean (0 nM = 100)","TMPRSS2 [1]; inhibitor 16.65 nM, 24 h in serum",114.2941
same,"TMPRSS2 activity, Mean (0 nM = 100)","TMPRSS2 [1]; inhibitor 16.65 nM, 10 d in serum",105.5411
same,"TMPRSS2 activity, Mean (0 nM = 100)",TMPRSS2 [1]; [3],3.2273
same,"TMPRSS2 activity, Mean (0 nM = 100)","TMPRSS2 [1]; inhibitor 166.5 nM, 0 min in serum",7.4453
same,"TMPRSS2 activity, Mean (0 nM = 100)","TMPRSS2 [1]; inhibitor 166.5 nM, 30 min in serum",7.7321
same,"TMPRSS2 activity, Mean (0 nM = 100)","TMPRSS2 [1]; inhibitor 166.5 nM, 60 min in serum",7.7056
same,"TMPRSS2 activity, Mean (0 nM = 100)","TMPRSS2 [1]; inhibitor 166.5 nM, 120 min in serum",7.7056
same,"TMPRSS2 activity, Mean (0 nM = 100)","TMPRSS2 [1]; inhibitor 166.5 nM, 24 h in serum",43.5256
same,"TMPRSS2 activity, Mean (0 nM = 100)","TMPRSS2 [1]; inhibitor 166.5 nM, 10 d in serum",104.8964
same,"TMPRSS2 activity, Mean (0 nM = 100)",TMPRSS2 [1]; [4],1.7660
same,"TMPRSS2 activity, Mean (0 nM = 100)","TMPRSS2 [1]; inhibitor 1665 nM, 0 min in serum",2.9461
same,"TMPRSS2 activity, Mean (0 nM = 100)","TMPRSS2 [1]; inhibitor 1665 nM, 30 min in serum",4.0032
same,"TMPRSS2 activity, Mean (0 nM = 100)","TMPRSS2 [1]; inhibitor 1665 nM, 60 min in serum",3.9955
same,"TMPRSS2 activity, Mean (0 nM = 100)","TMPRSS2 [1]; inhibitor 1665 nM, 120 min in serum",3.9955
same,"TMPRSS2 activity, Mean (0 nM = 100)","TMPRSS2 [1]; inhibitor 1665 nM, 24 h in serum",8.1597
same,"TMPRSS2 activity, Mean (0 nM = 100)","TMPRSS2 [1]; inhibitor 1665 nM, 10 d in serum",96.3530
same,"TMPRSS2 activity, Mean (0 nM = 100)",TMPRSS2 [1]; [5],2.6461
same,"Residual TMPRSS2 activity, Mean (0 nM = 100)","TMPRSS2 [2]; inhibitor 0.0167 nM, 0 min in cell culture medium",104.51
same,"Residual TMPRSS2 activity, Mean (0 nM = 100)","TMPRSS2 [2]; inhibitor 0.0167 nM, 30 min in cell culture medium",108.071
same,"Residual TMPRSS2 activity, Mean (0 nM = 100)","TMPRSS2 [2]; inhibitor 0.0167 nM, 60 min in cell culture medium",94.6283
same,"Residual TMPRSS2 activity, Mean (0 nM = 100)","TMPRSS2 [2]; inhibitor 0.0167 nM, 120 min in cell culture medium",101.99
same,"Residual TMPRSS2 activity, Mean (0 nM = 100)","TMPRSS2 [2]; inhibitor 0.0167 nM, 24 h in cell culture medium",104.987
same,"Residual TMPRSS2 activity, Mean (0 nM = 100)","TMPRSS2 [2]; inhibitor 0.0167 nM, 10 d in cell culture medium",98.7798
same,"Residual TMPRSS2 activity, Mean (0 nM = 100)","TMPRSS2 [2]; inhibitor 0.0167 nM, positive ctrl",112.676
same,"Residual TMPRSS2 activity, Mean (0 nM = 100)","TMPRSS2 [2]; inhibitor 0.167 nM, 0 min in cell culture medium",93.733
same,"Residual TMPRSS2 activity, Mean (0 nM = 100)","TMPRSS2 [2]; inhibitor 0.167 nM, 30 min in cell culture medium",95.4083
same,"Residual TMPRSS2 activity, Mean (0 nM = 100)","TMPRSS2 [2]; inhibitor 0.167 nM, 60 min in cell culture medium",77.5396
same,"Residual TMPRSS2 activity, Mean (0 nM = 100)","TMPRSS2 [2]; inhibitor 0.167 nM, 120 min in cell culture medium",90.8064
same,"Residual TMPRSS2 activity, Mean (0 nM = 100)","TMPRSS2 [2]; inhibitor 0.167 nM, 24 h in cell culture medium",102.761
same,"Residual TMPRSS2 activity, Mean (0 nM = 100)","TMPRSS2 [2]; inhibitor 0.167 nM, 10 d in cell culture medium",99.2067
same,"Residual TMPRSS2 activity, Mean (0 nM = 100)","TMPRSS2 [2]; inhibitor 0.167 nM, positive ctrl",96.1679
same,"Residual TMPRSS2 activity, Mean (0 nM = 100)","TMPRSS2 [2]; inhibitor 1.665 nM, 0 min in cell culture medium",49.6948
same,"Residual TMPRSS2 activity, Mean (0 nM = 100)","TMPRSS2 [2]; inhibitor 1.665 nM, 30 min in cell culture medium",47.8364
same,"Residual TMPRSS2 activity, Mean (0 nM = 100)","TMPRSS2 [2]; inhibitor 1.665 nM, 60 min in cell culture medium",26.9293
same,"Residual TMPRSS2 activity, Mean (0 nM = 100)","TMPRSS2 [2]; inhibitor 1.665 nM, 120 min in cell culture medium",28.8645
same,"Residual TMPRSS2 activity, Mean (0 nM = 100)","TMPRSS2 [2]; inhibitor 1.665 nM, 24 h in cell culture medium",90.2986
same,"Residual TMPRSS2 activity, Mean (0 nM = 100)","TMPRSS2 [2]; inhibitor 1.665 nM, 10 d in cell culture medium",96.8623
same,"Residual TMPRSS2 activity, Mean (0 nM = 100)","TMPRSS2 [2]; inhibitor 1.665 nM, positive ctrl",28.3437
same,"Residual TMPRSS2 activity, Mean (0 nM = 100)","TMPRSS2 [2]; inhibitor 16.65 nM, 0 min in cell culture medium",3.839
same,"Residual TMPRSS2 activity, Mean (0 nM = 100)","TMPRSS2 [2]; inhibitor 16.65 nM, 30 min in cell culture medium",20.3269
same,"Residual TMPRSS2 activity, Mean (0 nM = 100)","TMPRSS2 [2]; inhibitor 16.65 nM, 60 min in cell culture medium",1.937
same,"Residual TMPRSS2 activity, Mean (0 nM = 100)","TMPRSS2 [2]; inhibitor 16.65 nM, 120 min in cell culture medium",2.211
same,"Residual TMPRSS2 activity, Mean (0 nM = 100)","TMPRSS2 [2]; inhibitor 16.65 nM, 24 h in cell culture medium",42.5007
same,"Residual TMPRSS2 activity, Mean (0 nM = 100)","TMPRSS2 [2]; inhibitor 16.65 nM, 10 d in cell culture medium",95.3646
same,"Residual TMPRSS2 activity, Mean (0 nM = 100)",TMPRSS2 [2]; [3],3.3573
same,"Residual TMPRSS2 activity, Mean (0 nM = 100)","TMPRSS2 [2]; inhibitor 166.5 nM, 0 min in cell culture medium",-1.499
same,"Residual TMPRSS2 activity, Mean (0 nM = 100)","TMPRSS2 [2]; inhibitor 166.5 nM, 30 min in cell culture medium",-2.333
same,"Residual TMPRSS2 activity, Mean (0 nM = 100)","TMPRSS2 [2]; inhibitor 166.5 nM, 60 min in cell culture medium",-2.406
same,"Residual TMPRSS2 activity, Mean (0 nM = 100)","TMPRSS2 [2]; inhibitor 166.5 nM, 120 min in cell culture medium",-2.5978
same,"Residual TMPRSS2 activity, Mean (0 nM = 100)","TMPRSS2 [2]; inhibitor 166.5 nM, 24 h in cell culture medium",5.263
same,"Residual TMPRSS2 activity, Mean (0 nM = 100)","TMPRSS2 [2]; inhibitor 166.5 nM, 10 d in cell culture medium",97.9296
same,"Residual TMPRSS2 activity, Mean (0 nM = 100)",TMPRSS2 [2]; [4],-2.042
same,"Residual TMPRSS2 activity, Mean (0 nM = 100)","TMPRSS2 [2]; inhibitor 1665 nM, 0 min in cell culture medium",-4.334
same,"Residual TMPRSS2 activity, Mean (0 nM = 100)","TMPRSS2 [2]; inhibitor 1665 nM, 30 min in cell culture medium",-4.917
same,"Residual TMPRSS2 activity, Mean (0 nM = 100)","TMPRSS2 [2]; inhibitor 1665 nM, 60 min in cell culture medium",-4.534
same,"Residual TMPRSS2 activity, Mean (0 nM = 100)","TMPRSS2 [2]; inhibitor 1665 nM, 120 min in cell culture medium",-4.182
same,"Residual TMPRSS2 activity, Mean (0 nM = 100)","TMPRSS2 [2]; inhibitor 1665 nM, 24 h in cell culture medium",0.9545
same,"Residual TMPRSS2 activity, Mean (0 nM = 100)","TMPRSS2 [2]; inhibitor 1665 nM, 10 d in cell culture medium",88.1928
same,"Residual TMPRSS2 activity, Mean (0 nM = 100)",TMPRSS2 [2]; [5],-4.2458
